For test [1], the system named is CUTLL1 cells. As to the kind of experiment: Cell size (flow cytometry) and cell growth (MTT) assays in CUTLL1 cells. The class given is cell-based, human. Particulars: CompE 100 nM for 4 days. The procedure:
(§1) FIG. 2. PTEN loss and AKT activation induce GSI resistance in T-ALL. […] No protective effect was observed by expression of a control shRNA targeting the luciferase gene (shRNA LUC). Mean FSC-H values for GSI and vehicle only treatment controls are indicated. Bar graphs represent means +/− standard deviation of triplicate samples. P values were derived from Student's t-test.
(§2) Changes in cell size were monitored by flow cytometry after NOTCH1 inactivation by GSI treatment (CompE 100 nM) and upon lentiviral shRNA knock-down of NOTCH1. Cell growth ratios were determined by a colorimetric assay using the Cell Proliferation Kit I (MTT) (Roche) in cells treated with inhibitors or vehicle treated controls.
(In flow cytometry, cells or beads pass a laser one at a time.)

The next test deals with P12ICHIKAWA cells. As to the kind of experiment: Glucose uptake and oxidation in P12-ICHIKAWA cells. Particulars: CompE 100 nM for 96 hours. The class given is cell-based, human. The text has this:
(§3) FIG. 3. NOTCH1 regulates PTEN expression, AKT signaling and glucose metabolism. (a) Real-time PCR analysis of PTEN transcript levels upon NOTCH1 inhibition by GSI in CUTLL1 and HPB-ALL relative to (DMSO) controls. GAPDH levels were used as reference control. (b) Western blot analysis of PTEN and p-AKT (Ser473) in GSI sensitive T-ALL cell lines treated with CompE. AKT and α-Tubulin are shown as loading controls. (c) Real-time PCR analysis of Hes1 and PTEN expression in mouse DN3 thymocytes cocultured with stromal cells (OP9) or stromal cells expressing the NOTCH1 ligand Delta-like-1 (OP9-DL1). Data are means +/− standard deviation of duplicate (day 1) and triplicate (day 2) experiments. (d) Glucose uptake analysis in HPB-ALL and P12ICHIKAWA T-ALL cell lines in basal conditions (vehicle treatment only). (e) Glucose oxidation analysis in HPB-ALL and P12-ICHIKAWA T-ALL cell lines in basal conditions (vehicle treatment only). […]
(§4) Glucose uptake and oxidation were analyzed in T-ALL cells treated with GSI (CompE 100 nM for 96 hours) or vehicle only (DMSO) controls. […] For glucose uptake, cells were incubated with 0.1 mM (2 μCi/ml) 2-[3H]-deoxy-glucose, then washed in cold PBS and solubilized in 0.1% SDS and analyzed by scintillation counting. […] Glucose oxidation was measured as the amount of ^14CO2 captured in glass fiber filters previously soaked in 5% KOH. […]

The next test deals with p-AKT (Ser473). As to the kind of experiment: Western blot analysis of PTEN and p-AKT (Ser473) in GSI sensitive T-ALL cell lines. Format: cell-based, human. As to conditions: GSI-sensitive/PTEN-positive T-ALL cell lines. An excerpt: FIG. 3. NOTCH1 regulates PTEN expression, AKT signaling and glucose metabolism. (a) Real-time PCR analysis of PTEN transcript levels upon NOTCH1 inhibition by GSI in CUTLL1 and HPB-ALL relative to (DMSO) controls. GAPDH levels were used as reference control. (b) Western blot analysis of PTEN and p-AKT (Ser473) in GSI sensitive T-ALL cell lines treated with CompE. AKT and α-Tubulin are shown as loading controls. (c) Real-time PCR analysis of Hes1 and PTEN expression in mouse DN3 thymocytes cocultured with stromal cells (OP9) or stromal cells expressing the NOTCH1 ligand Delta-like-1 (OP9-DL1). Data are means +/− standard deviation of duplicate (day 1) and triplicate (day 2) experiments. (d) Glucose uptake analysis in HPB-ALL and P12ICHIKAWA T-ALL cell lines in basal conditions (vehicle treatment only). (e) Glucose oxidation analysis in HPB-ALL and P12-ICHIKAWA T-ALL cell lines in basal conditions (vehicle treatment only). (f) Effects of GSI treatment in glucose uptake in HPB-ALL and P12-ICHIKAWA T-ALL cells. (g) Effects of GSI treatment in glucose oxidation in HPB-ALL and P12-ICHIKAWA T-ALL cells. Data shown in (d) and (f) are means +/− standard deviation of triplicates. Data shown in (e) and (g) are means +/− standard deviation of duplicates. P values in (a) and (c)-(g) were derived from Student's t-test. […]
Background: In western blotting, separated proteins are transferred to a membrane and probed.

The next test concerns NOTCH1 processing. As to the kind of experiment: Western blot analysis of activated NOTCH1 (NOTCH1IC) in GSI-sensitive and GSI-resistant T-ALL cell lines. The class given is cell-based, human. As to conditions: Comp E 100 nM, 24 hours. The protocol: FIG. 7. CompE treatment effectively blocks NOTCH1 processing in GSI-sensitive and resistant T-ALL cells. Western blot analysis of activated NOTCH1 (NOTCH1IC) levels in GSI-sensitive and resistant cell lines after 24 hours treatment with Comp E (100 nM). α-Tubulin levels are shown as loading control. Lower molecular weight bands correspond to activated NOTCH1 protein in cell lines harboring mutations that result in C-terminal truncations of the PEST domain (NOTCH 1IC-ΔPEST).
(§5) Antibodies against activated NOTCH1 (Val1744, Cell Signaling); PTEN (clone 6H2.1, Cascade Biosciences), phospho-AKT (Ser473), AKT (Cell Signaling), LC3, and α-tubulin (TU-02, Santa Cruz Biotechnology) were used according to standard procedures. PTEN immunostaining of formalin-fixed paraffin-embedded tissue sections was performed after heat-induced epitope retrieval in a microwave in citrate buffer (pH6.0). PTEN antibody (Zymed) was used at a 1:50 dilution. Slides were incubated at room temperature overnight before antigen detection using a Ventana automated staining platform (Ventana) and diaminobenzidine (DAB) detection.

For a further test, the system named is DELTEX1. As to the kind of experiment: Quantitative RT-PCR analysis of DELTEX1 expression in GSI-sensitive and resistant T-ALL cell lines. Format: cell-based, human. As to conditions: Comp E 100 nM, 24 hours. The procedure: FIG. 8. CompE treatment effectively down regulates the expression of DELTEX1 in GSI-sensitive and resistant T-ALL cells. (a and b) Quantitative RT-PCR analysis of DELTEX1 expression in GSI-sensitive and resistant cell lines after 24 hours of treatment with Comp E (100 nM). Relative expression levels were calculated by the ΔΔCt method using GAPDH as a reference control. Data are means +/− standard deviation.
(§6) Total RNA from T-ALL cell lines was extracted with RNAqueous kit (Ambion) following the manufacturer's instructions. cDNA was generated with the ThermoScript RT-PCR system (Invitrogen) and analyzed by quantitative real-time PCR (SYBR Green RT-PCR Core Reagents kit and the 7300 Real-Time PCR System, both from Applied Biosystems). Similar procedures were used to analyze RNA from DN3 cells purified from OP9 cocultures: Trizol method (Invitrogen) for RNA isolation, Omniscript RT kit (Qiagen) for cDNA synthesis and QuantiTect SYBR Green PCR kit (Qiagen) and the Applied Biosystems Sequence Detection System 7000 for PCR. Relative expression levels were based on GAPDH and β-actin as reference controls.

For another test, the system named is HPB-ALL cells. Description: Glucose uptake and oxidation in HPB-ALL cells. The class given is cell-based, human. Particulars: CompE 100 nM for 96 hours.
Text: as §3, §4

The next test has as its system DND41 cells. As to the kind of experiment: Cell size (flow cytometry) and cell growth (MTT) assays in DND41 cells. Format: cell-based, human. As to conditions: CompE 100 nM for 4 days. The protocol: as §1, §2
Test [2] relates to CUTLL1 cells. Description: Autophagy analysis (electron microscopy, LC3 Western blot) in CUTLL1 cells. The class given is cell-based, human. The protocol: FIG. 11. […] (a, b) Transmission electron microscopy analysis of an early pass culture of CUTLL1 cells treated with vehicle control (DMSO) or GSI ([…] CompE) for 6 days. White arrow heads indicate phagosomes. Black arrowheads indicate mitochondria. (c) Quantitation of double membrane structures excluding mitochondria in control (DMSO) and GSI (CompE)-treated cells. Horizontal lines indicate the median. P values were derived from the Wilcoxon rank sum test. (d) Western blot analysis of the phagosome-associated LC3 protein in CUTLL1 cells treated with DMSO or CompE for 48 hours.
as §5
Electron microscopy. […] Double membrane structures, excluding mitochondria, were counted in sample preparations of an early-pass culture of CUTLL1 cells treated with DMSO or CompE (500 nM) for 6 days.

Another test deals with PTEN. As to the kind of experiment: Real-time PCR analysis of PTEN transcript levels upon NOTCH1 inhibition by GSI. The class given is cell-based, human. As to conditions: GSI-sensitive/PTEN-positive cells (CUTLL1, HPB-ALL).
Text: as §3, with “experiments.” for “experiments. (d) Glucose uptake analysis in HPB-ALL and P12ICHIKAWA T-ALL cell lines in basal conditions (vehicle treatment only). (e) Glucose oxidation analysis in HPB-ALL and P12-ICHIKAWA T-ALL cell lines in basal conditions (vehicle treatment only).”
as §6, with “Relative expression levels were based on GAPDH and β-actin as reference controls.” left out
On the technique in general: Quantitative PCR measures a nucleic acid by following its amplification.

The test system of test [3] is Drosophila ey-Gal4>DI flies. As to the kind of experiment: Drosophila DAPT treatments of flies overexpressing Delta (ey-Gal4>DI). The class given is in vivo. An excerpt:
FIG. 16. Inhibition of NOTCH signaling with GSI can suppress overgrowth caused by overexpression of Delta in vivo. (a) Quantification of NOTCH-like eye growth phenotypes associated with treatment with the presenilin/γ-secretase inhibitor DAPT in flies that overexpressed the NOTCH ligand Delta, during the proliferation phase of eye development. Genotype is ey-Gal4 UAS-DI (hereafter, ey-Gal4>DI). (b) Quantification of other NOTCH-like wing phenotypes (loss of wing margin and small wing size) in the ey-Gal4>DI treated animals. For each of the DAPT concentrations shown, the number of eyes and wings quantified were: n=215 (0 mM of DAPT), n=202 (0.25 mM), n=455 (0.5 mM) and n=318 (1 mM). Representative data from two independent experiments are shown.
Drosophila DAPT treatments. The γ-secretase inhibitor DAPT prevents NOTCH processing, translocation and signaling in cell culture and induces developmental defects in Drosophila similar to those caused by genetic reduction of NOTCH signaling. Stock solutions of the compound in ethanol were added to 2.5 ml of distilled water and dried potato food were prepared. Flies carrying a Delta transgene (UAS-DI) and the eye-specific Gal4 driver, ey-Gal4 (hereafter, ey-Gal4>DI) were kept on standard fly food at 26° C. for 3 days (72 hours) and the progeny were collected and transferred to the vials containing the food mixed with DAPT and allowed to progress through development in the presence of DAPT until closure.

The mark [4] stands for this setting: non-lethal doses (1 mM) in food.

From patent US20110118192A1, “METHODS AND COMPOSITIONS FOR TREATING T-CELL LEUKEMIA” (priority 2007, published 2011) come the findings set out here.

Entries after “also recorded” stand apart in the source; their conditions may differ.

Regarding `C[C@H](NC(=O)Cc1cc(F)cc(F)c1)C(=O)N[C@H]1N=C(c2ccccc2)c2ccccc2N(C)C1=O` [CompE, (2S)-2-{[(3,5-Difluorophenyl)acetyl]amino}-N-[(3S)1-methyl-2-oxo-5-phenyl-2,3-dihydro-1H-1,4-benzodiazepin-3-yl]propanamide], in the test with CUTLL1 cells [1], the cell growth entry is “decreased cell growth” and the “cell size (FSC-H)” value was “Decreased cell size”. Besides, in the test with P12ICHIKAWA cells, the glucose oxidation result is recorded as “not affected” and the glucose uptake entry is listed as “not affected”. Also, the “AKT Ser473 phosphorylation” value with p-AKT (Ser473) was “decreased Ser473 phosphorylation on AKT”. Moreover, the “NOTCH1 processing (activated NOTCH1, NOTCH1IC levels)” value with NOTCH1 processing was “effectively block NOTCH1 processing in all cell lines; also recorded: showed NOTCH1 inhibition”. The “NOTCH1 signaling (DELTEX1 expression)” value in the test on DELTEX1 was “effectively blocks NOTCH1 signaling and downregulates the expression of genes directly regulated by NOTCH1”. Further, in the test with HPB-ALL cells, the glucose oxidation entry is listed as “significant reductions” and the glucose uptake result is “significant reductions”. In addition, in the test with DND41 cells, the cell growth result is recorded as “reduced cell growth” and the cell size result was “cell size defects”. The “autophagy (transmission electron microscopy, double membrane structures)” value with CUTLL1 cells [2] (500 nM CompE for 6 days) was “induces autophagy”. Besides, the “phagosome-associated LC3 protein (Western blot)” value in the test with CUTLL1 cells [2] (CompE for 48 hours) is given as “induced the LC3-II isoform”. The “PTEN expression (transcript levels)” value in the test on PTEN is “significant upregulation of PTEN expression”.

As for `C[C@H](NC(=O)Cc1cc(F)cc(F)c1)C(=O)N[C@H](C(=O)OC(C)(C)C)c1ccccc1` [DAPT, N-[N-(3,5-difluorophenacetyl)-L-alanyl]-Sphenylglycine-t-butylester], in [3] (ey-Gal4>DI flies, DAPT in food), the “eye growth induced by Delta overexpression” value is given as “suppression of eye overgrowth; also recorded: prevented eye growth induced by Delta overexpression” and the wing phenotype entry is “wing defects equivalent to a genetic reduction of NOTCH activity”. For the same compound, in test [3] (setting [4]), the Delta-induced eye overgrowth entry is listed as “inhibits Delta-induced overgrowth”; the “eye and wing size” value was “eyes and wings smaller than wild type”.
